Data published in PMC7531601, “Exploiting Lactoferricin (17–30) as a Potential Antimicrobial and Antibiofilm Candidate Against Multi-Drug-Resistant Enteroaggregative Escherichia coli” (Frontiers in Microbiology, 2020).
Where two headings read alike, the source gives them in different places. Ends that are not written are not given here.

Tested on: MDR-EAEC isolates
Method: Initially, characterization of Lfcin (17–30) was performed by determining its minimum inhibitory concentration (MIC), minimum bactericidal concentration (MBC), in vitro stability assays (high-end temperatures, the physiological concentration of cationic salts and proteases), and in vitro safety assays (sheep erythrocyte hemolysis and secondary cell line cytotoxicity) (Supplementary Files S1–S3). The membrane permeabilization effect of Lfcin (17–30) was assessed by flow cytometry, whereas outer and inner membrane permeability of MDR-EAEC strains treated with 1 × and 2 × MIC levels of Lfcin (17–30) was carried out based on the nitrocefin activity as well as the release of cytoplasmic β-galactosidase activity, respectively (Supplementary File S4). Further, Lfcin (17–30) was evaluated for its antibacterial activity against beneficial lactobacilli (L. acidophilus MTCC 10307 and L. rhamnosus MTCC 1408) (Supplementary File S5).
To explore the utility of Lfcin (17-30) as a therapeutic molecule, in vitro stability was evaluated by exposing it to high-end temperatures, proteases as well as the physiological concentration of salts. In brief, the effect of temperature was investigated by incubating Lfcin (17-30) at 70 °C and 90 °C for 5, 15, and 30 min followed by measuring the MIC value. The effect of proteases (trypsin and proteinase-K) on the antimicrobial activity of Lfcin (17-30) [Protease: AMP- 1:100 (w/w)] was investigated by incubating with the respective protease at 37 °C for 30 sec, 2, 5, 15 and 30 min, followed by inactivating the enzyme at 90 °C for 10 min and measuring the MIC value. The stability of Lfcin (17-30) in the presence of high salt concentrations (150 mM and 2 mM MgCl2) was estimated in regular MH broth. Appropriate controls were included in each experiment.

[1] = MgCl2 (2 mM), regular MH broth, MDR 1
[2] = MgCl2 (2 mM), regular MH broth, MDR 2
[3] = MgCl2 (2 mM), regular MH broth, MDR 3
[4] = NaCl (150 mM), regular MH broth, MDR 1
[5] = NaCl (150 mM), regular MH broth, MDR 2
[6] = NaCl (150 mM), regular MH broth, MDR 3
[7] = peptide incubated at 70°C for 5 min, MDR 1
[8] = peptide incubated at 70°C for 5 min, MDR 2
[9] = peptide incubated at 70°C for 5 min, MDR 3
[10] = peptide incubated at 70°C for 15 min, MDR 1
[11] = peptide incubated at 70°C for 15 min, MDR 2
[12] = peptide incubated at 70°C for 15 min, MDR 3
[13] = peptide incubated at 70°C for 30 min, MDR 1
[14] = peptide incubated at 70°C for 30 min, MDR 2
[15] = peptide incubated at 70°C for 30 min, MDR 3
[16] = peptide incubated at 90°C for 5 min, MDR 1
[17] = peptide incubated at 90°C for 5 min, MDR 2
[18] = peptide incubated at 90°C for 5 min, MDR 3
[19] = peptide incubated at 90°C for 15 min, MDR 1
[20] = peptide incubated at 90°C for 15 min, MDR 2
[21] = peptide incubated at 90°C for 15 min, MDR 3
[22] = peptide incubated at 90°C for 30 min, MDR 1
[23] = peptide incubated at 90°C for 30 min, MDR 2
[24] = peptide incubated at 90°C for 30 min, MDR 3
[25] = proteinase-K 1:100 (w/w), 37°C, 2 min, MDR 1
[26] = proteinase-K 1:100 (w/w), 37°C, 2 min, MDR 2
[27] = proteinase-K 1:100 (w/w), 37°C, 2 min, MDR 3
[28] = proteinase-K 1:100 (w/w), 37°C, 5 min, MDR 1
[29] = proteinase-K 1:100 (w/w), 37°C, 5 min, MDR 2
[30] = proteinase-K 1:100 (w/w), 37°C, 5 min, MDR 3
[31] = proteinase-K 1:100 (w/w), 37°C, 15 min, MDR 1
[32] = proteinase-K 1:100 (w/w), 37°C, 15 min, MDR 2
[33] = proteinase-K 1:100 (w/w), 37°C, 15 min, MDR 3
[34] = proteinase-K 1:100 (w/w), 37°C, 30 min, MDR 1
[35] = proteinase-K 1:100 (w/w), 37°C, 30 min, MDR 2
[36] = proteinase-K 1:100 (w/w), 37°C, 30 min, MDR 3
[37] = trypsin 1:100 (w/w), 37°C, 2 min, MDR 1
[38] = trypsin 1:100 (w/w), 37°C, 2 min, MDR 2
[39] = trypsin 1:100 (w/w), 37°C, 2 min, MDR 3
[40] = trypsin 1:100 (w/w), 37°C, 5 min, MDR 1
[41] = trypsin 1:100 (w/w), 37°C, 5 min, MDR 2
[42] = trypsin 1:100 (w/w), 37°C, 5 min, MDR 3
[43] = trypsin 1:100 (w/w), 37°C, 15 min, MDR 1
[44] = trypsin 1:100 (w/w), 37°C, 15 min, MDR 2
[45] = trypsin 1:100 (w/w), 37°C, 15 min, MDR 3
[46] = trypsin 1:100 (w/w), 37°C, 30 min, MDR 1
[47] = trypsin 1:100 (w/w), 37°C, 30 min, MDR 2
[48] = trypsin 1:100 (w/w), 37°C, 30 min, MDR 3

What does the source list for FKCRRWQWRMKKLG [Lfcin (17–30)]?
MBC [1]: 32.0 µg/mL; MIC [1]: 32.0 µg/mL; MBC [2]: 32.0 µg/mL; MIC [2]: 32.0 µg/mL; MBC [3]: 32.0 µg/mL; MIC [3]: 32.0 µg/mL; MBC [4]: 32.0 µg/mL; MIC [4]: 32.0 µg/mL; MBC [5]: 32.0 µg/mL; MIC [5]: 32.0 µg/mL; MBC [6]: 32.0 µg/mL; MIC [6]: 32.0 µg/mL; MBC [7]: 32.0 µg/mL; MIC [7]: 32.0 µg/mL; MBC [8]: 32.0 µg/mL; MIC [8]: 32.0 µg/mL; MBC [9]: 32.0 µg/mL; MIC [9]: 32.0 µg/mL; MBC [10]: 32.0 µg/mL; MIC [10]: 32.0 µg/mL; MBC [11]: 32.0 µg/mL; MIC [11]: 32.0 µg/mL; MBC [12]: 32.0 µg/mL; MIC [12]: 32.0 µg/mL; MBC [13]: 32.0 µg/mL; MIC [13]: 32.0 µg/mL; MBC [14]: 32.0 µg/mL; MIC [14]: 32.0 µg/mL; MBC [15]: 32.0 µg/mL; MIC [15]: 32.0 µg/mL; MBC [16]: 32.0 µg/mL; MIC [16]: 32.0 µg/mL; MBC [17]: 32.0 µg/mL; MIC [17]: 32.0 µg/mL; MBC [18]: 32.0 µg/mL; MIC [18]: 32.0 µg/mL; MBC [19]: 32.0 µg/mL; MIC [19]: 32.0 µg/mL; MBC [20]: 32.0 µg/mL; MIC [20]: 32.0 µg/mL; MBC [21]: 32.0 µg/mL; MIC [21]: 32.0 µg/mL; MBC [22]: 32.0 µg/mL; MIC [22]: 32.0 µg/mL; MBC [23]: 32.0 µg/mL; MIC [23]: 32.0 µg/mL; MBC [24]: 32.0 µg/mL; MIC [24]: 32.0 µg/mL; MBC (proteinase-K 1:100 (w/w), 37°C, 0.5 min, MDR 1): 16.0 µg/mL; MBC (proteinase-K 1:100 (w/w), 37°C, 0.5 min, MDR 2): 32.0 µg/mL; MBC (proteinase-K 1:100 (w/w), 37°C, 0.5 min, MDR 3): 4.0 µg/mL; MBC [25]: 16.0 µg/mL; MIC [25]: 8.0 µg/mL; MBC [26]: 32.0 µg/mL; MIC [26]: 8.0 µg/mL; MBC [27]: 4.0 µg/mL; MIC [27]: 4.0 µg/mL; MBC [28]: 16.0 µg/mL; MIC [28]: 8.0 µg/mL; MBC [29]: 32.0 µg/mL; MIC [29]: 8.0 µg/mL; MBC [30]: 4.0 µg/mL; MIC [30]: 4.0 µg/mL; MBC [31]: 16.0 µg/mL; MIC [31]: 8.0 µg/mL; MBC [32]: 32.0 µg/mL; MIC [32]: 8.0 µg/mL; MBC [33]: 4.0 µg/mL; MIC [33]: 4.0 µg/mL; MBC [34]: 8.0 µg/mL; MIC [34]: 8.0 µg/mL; MBC [35]: 16.0 µg/mL; MIC [35]: 8.0 µg/mL; MBC [36]: 4.0 µg/mL; MIC [36]: 2.0 µg/mL; MIC (proteinase-K, protease:AMP 1:100 (w/w), 37°C, 0.5 min, enzyme inactivated 90°C 10 min, MDR 1): 8.0 µg/mL; MIC (proteinase-K, protease:AMP 1:100 (w/w), 37°C, 0.5 min, enzyme inactivated 90°C 10 min, MDR 2): 8.0 µg/mL; MIC (proteinase-K, protease:AMP 1:100 (w/w), 37°C, 0.5 min, enzyme inactivated 90°C 10 min, MDR 3): 4.0 µg/mL; stability to protease (proteinase-K) (proteinase-K, judged by MIC and MBC): stable; MBC (trypsin 1:100 (w/w), 37°C, 0.5 min, MDR 1): 16.0 µg/mL; MBC (trypsin 1:100 (w/w), 37°C, 0.5 min, MDR 2): 16.0 µg/mL; MBC (trypsin 1:100 (w/w), 37°C, 0.5 min, MDR 3): 16.0 µg/mL; MBC [37]: 16.0 µg/mL; MIC [37]: 16.0 µg/mL; MBC [38]: 16.0 µg/mL; MIC [38]: 16.0 µg/mL; MBC [39]: 16.0 µg/mL; MIC [39]: 16.0 µg/mL; MBC [40]: 16.0 µg/mL; MIC [40]: 16.0 µg/mL; MBC [41]: 16.0 µg/mL; MIC [41]: 16.0 µg/mL; MBC [42]: 16.0 µg/mL; MIC [42]: 16.0 µg/mL; MBC [43]: 16.0 µg/mL; MIC [43]: 16.0 µg/mL; MBC [44]: 16.0 µg/mL; MIC [44]: 16.0 µg/mL; MBC [45]: 32.0 µg/mL; MIC [45]: 16.0 µg/mL; MBC [46]: 16.0 µg/mL; MIC [46]: 16.0 µg/mL; MBC [47]: 16.0 µg/mL; MIC [47]: 16.0 µg/mL; MBC [48]: 32.0 µg/mL; MIC [48]: 16.0 µg/mL; MIC (trypsin, protease:AMP 1:100 (w/w), 37°C, 0.5 min, enzyme inactivated 90°C 10 min, MDR 1): 16.0 µg/mL; MIC (trypsin, protease:AMP 1:100 (w/w), 37°C, 0.5 min, enzyme inactivated 90°C 10 min, MDR 2): 16.0 µg/mL; MIC (trypsin, protease:AMP 1:100 (w/w), 37°C, 0.5 min, enzyme inactivated 90°C 10 min, MDR 3): 16.0 µg/mL; stability to protease (trypsin) (trypsin, judged by MIC and MBC): stable
